From patent US8975398B2, “NAMPT inhibitors” (AbbVie Inc., priority 2012, dated 2015)

Assays:
[1] = target: NAMPT (human, recombinant, C-terminally His-tagged) (Homo sapiens, UniProt P43490); assay: Time-Resolved Fluorescence Resonance Energy Transfer (TR-FRET) Binding Assay of NAMPT; details: 6.8 nM NAMPT, 200 nM probe, equilibrated 3 hours, absence of substrates
Summary of the method: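 Probe displacement measured by TR-FRET (Ex 337 nm; 520/495 nm ratio) after 3 h room-temperature equilibration of compound with 6.8 nM His-tagged human NAMPT, 1 nM Tb-anti-His antibody and 200 nM Oregon Green 488 nicotinamide-site probe, pH 7.5 HEPES buffer, 2% DMSO. Control-normalized data fit four-parameter logistic for IC50.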

[2] = target: NAMPT (Homo sapiens, UniProt P43490); assay: Time-Resolved Fluorescence Resonance Energy Transfer (TR-FRET) Binding Assay of NAMPT with PRPP; details: 2 nM NAMPT, 2 nM probe, 200 uM PRPP and 2.5 mM ATP, equilibrated 16 hours
Chain of NAMPT (P43490 whole entry): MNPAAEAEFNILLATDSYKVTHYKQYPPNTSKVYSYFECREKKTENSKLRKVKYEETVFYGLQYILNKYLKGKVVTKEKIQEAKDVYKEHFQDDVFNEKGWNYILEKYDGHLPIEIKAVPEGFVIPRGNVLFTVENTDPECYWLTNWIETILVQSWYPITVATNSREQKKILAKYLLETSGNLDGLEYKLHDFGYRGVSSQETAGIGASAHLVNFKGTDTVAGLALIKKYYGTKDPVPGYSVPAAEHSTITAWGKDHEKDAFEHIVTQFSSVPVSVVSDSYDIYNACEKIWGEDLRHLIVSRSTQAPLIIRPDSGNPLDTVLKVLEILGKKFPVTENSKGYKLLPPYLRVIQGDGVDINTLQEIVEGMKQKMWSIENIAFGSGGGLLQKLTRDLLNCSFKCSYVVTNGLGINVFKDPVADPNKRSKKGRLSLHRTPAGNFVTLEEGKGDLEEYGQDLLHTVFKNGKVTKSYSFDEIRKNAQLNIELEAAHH
Summary of the method: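 Binding measured by TR-FRET after a 16-hour equilibration meant to permit enzymatic compound modification. Substrates present at 200 uM PRPP and 2.5 mM ATP, with 2 nM enzyme, 2 nM probe, 1 nM Tb-anti-His antibody and 2% DMSO final.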

Chain of NAMPT (human, recombinant, C-terminally His-tagged) (P43490 whole entry): as above

Work on `CC(=O)N1CCC(Oc2ccc(NC(=O)C3CN(c4cccnc4)C3)cc2)CC1` [Example 56, N-{4-[(1-acetylpiperidin-4-yl)oxy]phenyl}-1-(pyridin-3-yl)azetidine-3-carboxamide] yielded an IC50 [1] of 360 nM and an IC50 [2] of 0.812 nM.
For `Cc1ncccc1N1CC(C(=O)Nc2ccc(C3CCN(C(=O)[C@@H]4CCC(=O)N4)CC3)cc2)C1` [Example 174, 1-(2-methylpyridin-3-yl)-N-{4-[1-(5-oxo-L-prolyl)piperidin-4-yl]phenyl}azetidine-3-carboxamide], the IC50 [1] was 2100 nM and the IC50 [2] was 158 nM.
Work on `O=C(Nc1ccc(OC2CN(C(=O)C3CCCCC3)C2)cc1)C1CN(c2ccnnc2)C1` [Example 255, N-(4-{[1-(cyclohexylcarbonyl)azetidin-3-yl]oxy}phenyl)-1-(pyridazin-4-yl)azetidine-3-carboxamide] yielded an IC50 [1] of 47.3 nM and an IC50 [2] of 37.8 nM.
`O=C(Nc1ccc(OC2CCN(C(=O)C3CCC(F)(F)CC3)CC2)cc1)C1CN(c2ccnnc2)C1` [Example 270, N-[4-({1-[(4,4-difluorocyclohexyl)carbonyl]piperidin-4-yl}oxy)phenyl]-1-(pyridazin-4-yl)azetidine-3-carboxamide] showed an IC50 [1] of 74.8 nM and an IC50 [2] of 35.7 nM.
With `O=C(Nc1ccc(C2CCN(C(=O)CC(F)(F)F)CC2)cc1)C1CN(c2cccnc2)C1` [Example 122, 1-(pyridin-3-yl)-N-{4-[1-(3,3,3-trifluoropropanoyl)piperidin-4-yl]phenyl}azetidine-3-carboxamide] the IC50 [1] was 7.94 nM and the IC50 [2] was 0.169 nM.
`Cc1ncccc1N1CC(C(=O)Nc2ccc(C3CCN(C(=O)CCN4CCCCC4)CC3)cc2)C1` [Example 190, 1-(2-methylpyridin-3-yl)-N-(4-{1-[3-(piperidin-1-yl)propanoyl]piperidin-4-yl}phenyl)azetidine-3-carboxamide] was tested, and the IC50 [1] was 1910 nM and the IC50 [2] was 103 nM.
In the case of `CCCC(=O)N1CCC(c2ccc(NC(=O)C3CN(c4cccnc4)C3)cc2)CC1` [Example 134, N-[4-(1-butanoylpiperidin-4-yl)phenyl]-1-(pyridin-3-yl)azetidine-3-carboxamide], the IC50 [1] is reported as 16.9 nM and the IC50 [2] is reported as 0.361 nM.
Work on `O=C(Nc1ccc(OC2CN(C(=O)c3ccc(F)cc3)C2)cc1)C1CN(c2ccnnc2)C1` [Example 199, N-(4-{[1-(4-fluorobenzoyl)azetidin-3-yl]oxy}phenyl)-1-(pyridazin-4-yl)azetidine-3-carboxamide] yielded an IC50 [1] of 33.7 nM and an IC50 [2] of 28 nM.
`CC(C)CN1CCC(c2ccc(NC(=O)C3CN(c4cccnc4)C3)cc2)CC1` [Example 94, N-{4-[1-(2-methylpropyl)piperidin-4-yl]phenyl}-1-(pyridin-3-yl)azetidine-3-carboxamide] gave an IC50 [1] of 2270 nM and an IC50 [2] of 1.03 nM.
`O=C(Nc1ccc(OC2CCN(C(=O)c3ccc(F)cc3)CC2)cc1)C1CN(c2ccnnc2)C1` [Example 271, N-(4-{[1-(4-fluorobenzoyl)piperidin-4-yl]oxy}phenyl)-1-(pyridazin-4-yl)azetidine-3-carboxamide] gave an IC50 [1] of 78 nM and an IC50 [2] of 25.2 nM.
Compound `CCC(C)(C)C(=O)N1CCC(c2ccc(NC(=O)C3CN(c4cccnc4C)C3)cc2)CC1` [Example 193, N-{4-[1-(2,2-dimethylbutanoyl)piperidin-4-yl]phenyl}-1-(2-methylpyridin-3-yl)azetidine-3-carboxamide] has an IC50 [1] of 40.2 nM and an IC50 [2] of 54 nM.
For `Cc1ncccc1N1CC(C(=O)Nc2ccc(C3CCN(C(=O)CC(F)(F)F)CC3)cc2)C1` [Example 182, 1-(2-methylpyridin-3-yl)-N-{4-[1-(3,3,3-trifluoropropanoyl)piperidin-4-yl]phenyl}azetidine-3-carboxamide], the IC50 [1] was 140 nM and the IC50 [2] was 104 nM.
`CC(C)C(=O)N1CCC(c2ccc(NC(=O)C3CN(c4ccnnc4)C3)cc2)CC1` [Example 528, N-{4-[1-(2-methylpropanoyl)piperidin-4-yl]phenyl}-1-(pyridazin-4-yl)azetidine-3-carboxamide] gave an IC50 [1] of 26.2 nM and an IC50 [2] of 17.3 nM.
With `CCCC(C)CN1CCC(Oc2ccc(NC(=O)C3CN(c4cccnc4)C3)cc2)CC1` (stereo not drawn) [Example 75, N-(4-{[1-(2-methylpentyl)piperidin-4-yl]oxy}phenyl)-1-(pyridin-3-yl)azetidine-3-carboxamide] the IC50 [1] was 1340 nM and the IC50 [2] was 0.719 nM.
`CCOCCC(=O)N1CCC(Oc2ccc(NC(=O)C3CN(c4cccnc4)C3)cc2)CC1` [Example 39, N-(4-{[1-(3-ethoxypropanoyl)piperidin-4-yl]oxy}phenyl)-1-(pyridin-3-yl)azetidine-3-carboxamide] showed an IC50 [1] of 104 nM and an IC50 [2] of 1.05 nM.
`CC(C)(C(=O)N1CCC(Oc2ccc(NC(=O)C3CN(c4ccnnc4)C3)cc2)CC1)c1ccccc1` [Example 281, N-(4-{[1-(2-methyl-2-phenylpropanoyl)piperidin-4-yl]oxy}phenyl)-1-(pyridazin-4-yl)azetidine-3-carboxamide] showed an IC50 [1] of 20.5 nM and an IC50 [2] of 14.9 nM.
With `O=C(Nc1ccc(C2CCN(C(=O)c3ccco3)CC2)cc1)C1CN(c2cccnc2)C1` [Example 129, N-{4-[1-(furan-2-ylcarbonyl)piperidin-4-yl]phenyl}-1-(pyridin-3-yl)azetidine-3-carboxamide] the IC50 [1] was 4.49 nM and the IC50 [2] was 0.367 nM.
For `O=C(Nc1ccc(OC2CN(C(=O)C3CCOC3)C2)cc1)C1CN(c2ccnnc2)C1` (stereo not drawn) [Example 208, 1-(pyridazin-4-yl)-N-(4-{[1-(tetrahydrofuran-3-ylcarbonyl)azetidin-3-yl]oxy}phenyl)azetidine-3-carboxamide], the IC50 [1] was 117 nM and the IC50 [2] was 49.6 nM.
For `O=C(Nc1ccc(OC2CCN(C(=O)c3cccc(Cl)c3)CC2)cc1)C1CN(c2cccnn2)C1` [Example 250, N-(4-{[1-(3-chlorobenzoyl)piperidin-4-yl]oxy}phenyl)-1-(pyridazin-3-yl)azetidine-3-carboxamide], the IC50 [1] was 107 nM and the IC50 [2] was 0.641 nM.
In the case of `O=C(Nc1ccc(OC2CCN(C(=O)Cc3ccccc3F)CC2)cc1)C1CN(c2cccnn2)C1` [Example 247, N-[4-({1-[(2-fluorophenyl)acetyl]piperidin-4-yl}oxy)phenyl]-1-(pyridazin-3-yl)azetidine-3-carboxamide], the IC50 [1] is reported as 86 nM and the IC50 [2] is reported as 1.02 nM.
Work on `CCC(C)CC(=O)N1CCC(Oc2ccc(NC(=O)C3CN(c4cccnc4)C3)cc2)CC1` (stereo not drawn) [Example 38, N-(4-{[1-(3-methylpentanoyl)piperidin-4-yl]oxy}phenyl)-1-(pyridin-3-yl)azetidine-3-carboxamide] yielded an IC50 [1] of 46.5 nM and an IC50 [2] of 0.9 nM.
`C=CCC(=O)N1CCC(c2ccc(NC(=O)C3CN(c4cccnn4)C3)cc2)CC1` [Example 330, N-{4-[1-(but-3-enoyl)piperidin-4-yl]phenyl}-1-(pyridazin-3-yl)azetidine-3-carboxamide] gave an IC50 [1] of 31.7 nM and an IC50 [2] of 0.887 nM.
`CC(C)C(=O)N1CCC(c2ccc(NC(=O)C3CN(c4cccnc4)C3)cc2)CC1` [Example 30, N-{4-[1-(2-methylpropanoyl)piperidin-4-yl]phenyl}-1-(pyridin-3-yl)azetidine-3-carboxamide] gave an IC50 [1] of 15 nM and an IC50 [2] of 0.267 nM.
In the case of `CC[C@H](C)C(=O)N1CCC(Oc2ccc(NC(=O)C3CN(c4cccnc4)C3)cc2)CC1` [Example 32, N-[4-({1-[(2S)-2-methylbutanoyl]piperidin-4-yl}oxy)phenyl]-1-(pyridin-3-yl)azetidine-3-carboxamide], the IC50 [1] is reported as 10.2 nM and the IC50 [2] is reported as 0.284 nM.
